# Measurements as given in patent US12077503B2, “Substituted cyclic amides and their use as herbicides” (FMC CORPORATION, priority 2015, dated 2024).
# What was measured:
# Type in all cases: in vivo
# Kochia (Kochia scoparia) [1] = assay: Test A postemergence; conditions: postemergence, 0 to 100 scale (0 no effect, 100 complete control)
# Outline: (§1)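 Greenhouse, ~10 d after spray; visual injury vs untreated controls, 0 = no effect, 100 = complete control. Preemergence: directed soil spray over planted seeds. Postemergence: plants 2–10 cm, 1–2 leaf stage. Loam/sand blend. Compound in non-phytotoxic solvent with surfactant.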
# [2] = test system: barnyardgrass (Echinochloa crus-galli); assay: Test A postemergence
# Outline: as §1
# [3] = test system: wheat (Triticum aestivum); assay: Test A postemergence; conditions: postemergence, 0 to 100 scale (0 no effect, 100 complete control)
# Outline: as §1
# [4] = test system: pigweed (Amaranthus retroflexus); assay: Test A postemergence; conditions: postemergence, 0 to 100 scale (0 no effect, 100 complete control)
# Outline: as §1
# corn (Zea mays) = assay: Test A postemergence
# Outline: as §1
# [5] = test system: ryegrass, Italian (Italian ryegrass, Lolium multiflorum); assay: Test A postemergence; conditions: postemergence, 0 to 100 scale (0 no effect, 100 complete control)
# Outline: as §1
# [6] = test system: Galium (catchweed bedstraw, Galium aparine); assay: Test A postemergence; conditions: postemergence, 0 to 100 scale (0 no effect, 100 complete control)
# Outline: as §1
# [7] = test system: ragweed (common ragweed, Ambrosia elatior); assay: Test A postemergence; conditions: postemergence, 0 to 100 scale (0 no effect, 100 complete control)
# Outline: as §1
# [8] = test system: blackgrass (Alopecurus myosuroides); assay: Test A postemergence
# Outline: as §1
# [9] = test system: giant foxtail (Setaria faberii); assay: Test A postemergence; conditions: postemergence, 0 to 100 scale (0 no effect, 100 complete control)
# Outline: as §1
# [10] = test system: ducksalad (Heteranthera limosa); assay: Test B flooded paddy test; conditions: Flood, 250 g ai/ha; 0 to 100 scale where 0 is no effect and 100 is complete control; 13 to 15 d
# Outline: (§2)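 Plants at 2-leaf stage flooded to 3 cm above soil, with compounds applied directly to paddy water and that depth maintained. Plants kept in greenhouse 13–15 d. Visual rating versus controls on a 0 (no effect) to 100 (complete control) scale.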
# [11] = test system: sedge, umbrella (small-flower umbrella sedge, Cyperus difformis); assay: Test B flooded paddy test; conditions: Flood, 250 g ai/ha; 0 to 100 scale where 0 is no effect and 100 is complete control; 13 to 15 d
# Outline: as §2
# [12] = test system: barnyardgrass (Echinochloa crus-galli); assay: Test B flooded paddy test; conditions: Flood, 250 g ai/ha; 0 to 100 scale where 0 is no effect and 100 is complete control; 13 to 15 d
# Outline: as §2
# rice (Oryra sativa) = assay: Test B flooded paddy test; conditions: Flood, 250 g ai/ha; 0 to 100 scale where 0 is no effect and 100 is complete control; 13 to 15 d
# Outline: as §2
# [13] = test system: ducksalad (Heteranthera limosa); assay: Test C flooded paddy test; conditions: Flood, 0 is no effect, 100 is complete control
# Outline: (§3)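 Plants grown to the 2-leaf stage in pots flooded to 3 cm above soil; compounds applied directly into the paddy water, depth held throughout. After 13 to 15 d in greenhouse, injury visually rated against untreated controls on a 0–100 scale (0 no effect, 100 complete control).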
# [14] = test system: sedge, umbrella (small-flower umbrella sedge, Cyperus difformis); assay: Test C flooded paddy test; conditions: Flood, 0 is no effect, 100 is complete control
# Outline: as §3
# [15] = test system: barnyardgrass (Echinochloa crus-galli); assay: Test C flooded paddy test; conditions: Flood, 0 is no effect, 100 is complete control
# Outline: as §3
# rice (Oryza sativa) = assay: Test C flooded paddy test; conditions: Flood, 0 is no effect, 100 is complete control
# Outline: as §3
# Kochia (Kochia scoparia) [16] = assay: Test A preemergence
# Outline: as §1
# [17] = test system: barnyardgrass (Echinochloa crus-galli); assay: Test A preemergence
# Outline: as §1
# [18] = test system: pigweed (Amaranthus retroflexus); assay: Test A preemergence
# [19] = test system: ryegrass, Italian (Italian ryegrass, Lolium multiflorum); assay: Test A preemergence
# Outline: as §1
# [20] = test system: ragweed (common ragweed, Ambrosia elatior); assay: Test A preemergence
# Outline: as §1
# [21] = test system: giant foxtail (Setaria faberii); assay: Test A preemergence
# Outline: as §1
# [22] = 125 g ai/ha, visual rating after approx. 10 d
# [23] = 500 g ai/ha, visual injury, approx. 10 d
# [24] = 125 g ai/ha, postemergence, visual rating after approx. 10 d, 0 to 100 scale (0 no effect, 100 complete control)
# [25] = Postemergence, 500 g ai/ha, 0 to 100 scale where 0 is no effect and 100 is complete control
# [26] = 125 g ai/ha, Preemergence, visual injury after approximately 10 d, 0 to 100 scale where 0 is no effect and 100 is complete control
# [27] = 500 g ai/ha, preemergence, 0 to 100 scale, 0 = no effect, 100 = complete control
smiles,measurement,setting,value
CN1CC(c2cccc(F)c2)C(C(=O)Nc2ccc(F)cc2F)C1=O (stereo not shown) [Compound 633],"Plant response rating, Kochia",Kochia (Kochia scoparia) [1]; [22],40
same,"Plant response rating, Kochia",Kochia (Kochia scoparia) [1]; [23],60
same,"Plant response rating, Barnyardgrass",[2]; [24],90
same,"Plant response rating, Barnyardgrass",[2]; [25],90
same,"Plant response rating, Wheat",[3]; [22],0
same,"Plant response rating, Wheat",[3]; [23],40
same,"Plant response rating, Pigweed",[4]; [22],0
same,"Plant response rating, Pigweed",[4]; [23],0
same,"Plant response rating, Corn",corn (Zea mays); [24],0
same,"Plant response rating, Corn",corn (Zea mays); [25],60
same,"Plant response rating, Ryegrass, Italian",[5]; [22],0
same,"Plant response rating, Ryegrass, Italian",[5]; [23],50
same,"Plant response rating, Galium",[6]; [22],0
same,"Plant response rating, Galium",[6]; [23],50
same,"Plant response rating, Ragweed",[7]; [22],0
same,"Plant response rating, Ragweed",[7]; [23],0
same,"Plant response rating, Blackgrass",[8]; [24],20
same,"Plant response rating, Blackgrass",[8]; [25],50
same,"Plant response rating, Foxtail, Giant",[9]; [22],90
same,"Plant response rating, Foxtail, Giant",[9]; [23],90
same,"Plant response rating, Ducksalad",[10],100
same,"Plant response rating, Sedge, Umbrella",[11],0
same,"Plant response rating, Barnyardgrass",[12],90
same,"Plant response rating, Rice",rice (Oryra sativa),20
same,"Plant response rating (scale of 0 to 100), Ducksalad",[13]; 31 g ai/ha,0
same,"Plant response rating (scale of 0 to 100), Ducksalad",[13]; 62 g ai/ha,60
same,"Plant response rating (scale of 0 to 100), Ducksalad",[13]; 125 g ai/ha,75
same,"Plant response rating (scale of 0 to 100), Ducksalad",[13]; 250 g ai/ha,100
same,"Plant response rating (scale of 0 to 100), Sedge, Umbrella",[14]; 31 g ai/ha,0
same,"Plant response rating (scale of 0 to 100), Sedge, Umbrella",[14]; 62 g ai/ha,0
same,"Plant response rating (scale of 0 to 100), Sedge, Umbrella",[14]; 125 g ai/ha,0
same,"Plant response rating (scale of 0 to 100), Sedge, Umbrella",[14]; 250 g ai/ha,0
same,"Plant response rating (scale of 0 to 100), Barnyardgrass",[15]; 31 g ai/ha,10
same,"Plant response rating (scale of 0 to 100), Barnyardgrass",[15]; 62 g ai/ha,40
same,"Plant response rating (scale of 0 to 100), Barnyardgrass",[15]; 125 g ai/ha,55
same,"Plant response rating (scale of 0 to 100), Barnyardgrass",[15]; 250 g ai/ha,70
same,"Plant response rating (scale of 0 to 100), Rice",rice (Oryza sativa); 31 g ai/ha,0
same,"Plant response rating (scale of 0 to 100), Rice",rice (Oryza sativa); 62 g ai/ha,0
same,"Plant response rating (scale of 0 to 100), Rice",rice (Oryza sativa); 125 g ai/ha,0
same,"Plant response rating (scale of 0 to 100), Rice",rice (Oryza sativa); 250 g ai/ha,10
same,"Plant response rating, Kochia",Kochia (Kochia scoparia) [16]; [26],30
same,"Plant response rating, Kochia",Kochia (Kochia scoparia) [16]; [27],50
same,"Plant response rating, Barnyardgrass",[17]; [26],90
same,"Plant response rating, Barnyardgrass",[17]; [27],90
same,"Plant response rating, Pigweed",[18]; [26],0
same,"Plant response rating, Pigweed",[18]; [27],50
same,"Plant response rating, Ryegrass, Italian",[19]; [26],30
same,"Plant response rating, Ryegrass, Italian",[19]; [27],60
same,"Plant response rating, Ragweed",[20]; [26],0
same,"Plant response rating, Ragweed",[20]; [27],50
same,"Plant response rating, Foxtail, Giant",[21]; [26],90
same,"Plant response rating, Foxtail, Giant",[21]; [27],90
